According to US20130310256A1, “HERBICIDAL COMPOSITIONS COMPRISING 4-AMINO-3-CHLORO-5-FLUORO-6-(4-CHLORO-2-FLUORO-3-METHOXYPHENYL) PYRIDINE-2-CARBOXYLIC ACID OR A DERIVATIVE THEREOF AND VLCFA AND LIPID SYNTHESIS INHIBITING HERBICIDES” (DOW AGROSCIENCES LLC, priority 2008, published 2013):
Where “and” joins values, the source holds several entries; their conditions need not be identical. Equal values may be shown once. Read-outs that look alike come from different tables or passages of the source.

Tests used:
[1] = tested on: CYPIR; experiment: Example I: postemergence foliar-applied weed control, greenhouse; assay type: in vivo, Cyperus iria L. (rice flatsedge)
In short: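 Plants grown in loam/sandy loam–calcareous grit soil (80:20) in greenhouse, 14 hr photoperiod, about 29° C. day/26° C. night, treated postemergence at first to fourth true leaf stage. Foliar spray at 187 L/ha with 1.25% (v/v) crop oil concentrate; Compound A dosed on acid equivalent basis, partners on active ingredient basis.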

[2] = tested on: ECHOR; experiment: Example II: in-water applied weed control, transplanted paddy rice, greenhouse; assay type: in vivo, Echinochloa oryzoides (Ard.) Fritsch (early watergrass)
In short: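 Transplanted rice and weeds at the first to fourth true leaf stage in flooded mud pots (pH ~7.6 soil), greenhouse ~29/26 °C, 14 h photoperiod. Compound A (acid equivalent) and VLCFA/lipid-synthesis herbicides (active ingredient) injected into the paddy water in 1.25% crop oil concentrate. Injury scored visually at ~3 weeks versus untreated, 0–100%.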

Q: For `COc1c(Cl)ccc(-c2nc(C(=O)OCc3ccccc3)c(Cl)c(N)c2F)c1F` [Compound A Benzyl Ester, benzyl ester of 4-amino-3-chloro-5-fluoro-6-(4-chloro-2-fluoro-3-methoxy-phenyl)pyridine-2-carboxylic acid], which “Visual Weed Control (%) - 21 DAA CYPIR Obs” value ([1]; 8 gae/ha, foliar) is on record?
A: 30%

Q: And the “Visual Weed Control (%) - 22 DAA CYPIR Obs” value ([1]; 16 gae/ha, foliar)?
A: 60%

Q: What about the “Visual Weed Control Obs” value ([1]; 20 DAA, 4.38 gae/ha) of the same molecule?
A: 80%

Q: What about the “Visual Weed Control (%) - 20 DAA ECHOR Obs” value ([2]; 4.38 gae/ha) of the same molecule?
A: 10%

Q: And the “Visual Weed Control (%) - 20 DAA ECHOR Obs” value ([2]; 8.75 gae/ha)?
A: 20%

Q: And the “Visual Weed Control (%) - 21 DAA ECHOR Obs” value ([2]; 8.75 gae/ha)?
A: 15% and 25%

Q: What about the “Visual Weed Control (%) - 20 DAA ECHOR Obs” value ([2]; 17.5 gae/ha) of the same molecule?
A: 50%

Q: What about the pest or weed control at 4.38 g/ha ([2]; Echinochloa oryzoides, 480 h, 4.38 gae/ha, 20 DAA, read-out: Visual Weed Control ECHOR Obs) of the same molecule?
A: 10%

Q: And the pest or weed control at 8.75 g/ha ([2]; Echinochloa oryzoides, 480 h, 8.75 gae/ha, 20 DAA, read-out: Visual Weed Control ECHOR Obs)?
A: 20%

Q: What about the pest or weed control at 17.5 g/ha ([2]; Echinochloa oryzoides, 480 h, 17.5 gae/ha, 20 DAA, read-out: Visual Weed Control ECHOR Obs) of the same molecule?
A: 50%

Q: What about the pest or weed control at 8.75 g/ha ([2]; Echinochloa oryzoides, 504 h, 8.75 gae/ha, 21 DAA, read-out: Visual Weed Control ECHOR Obs) of the same molecule?
A: 15%

Q: What about the pest or weed control at 8.75 g/ha ([2]; Echinochloa oryzoides, 528 h, 8.75 gae/ha, 22 DAA, read-out: Visual Weed Control ECHOR Obs) of the same molecule?
A: 35%

Q: And the pest or weed control at 17.5 g/ha ([2]; Echinochloa oryzoides, 528 h, 17.5 gae/ha, 22 DAA, read-out: Visual Weed Control ECHOR Obs)?
A: 30%

Q: Which “Visual Weed Control (%) - 22 DAA CYPIR Obs” value ([1]; 5.3 gae/ha, foliar) does the source give for `COc1c(Cl)ccc(-c2nc(C(=O)O)c(Cl)c(N)c2F)c1F` [Compound A Acid, 4-amino-3-chloro-6-(4-chloro-2-fluoro-3-methoxyphenyl)-5-fluoropyridine-2-carboxylic acid] here?
A: 60%

Q: And the “Visual Weed Control Obs” value ([1]; 20 DAA, 4.38 gae/ha)?
A: 40%

Q: What about the “Visual Weed Control Obs” value ([1]; 21 DAA, 4.38 gae/ha) of the same molecule?
A: 70%

Q: And the “Visual Weed Control (%) - 20 DAA ECHOR Obs” value ([2]; 8.75 gae/ha)?
A: 10%

Q: And the “Visual Weed Control (%) - 20 DAA ECHOR Obs” value ([2]; 17.5 gae/ha)?
A: 25%

Q: And the “Visual Weed Control (%) - 21 DAA ECHOR Obs” value ([2]; 17.5 gae/ha)?
A: 25% and 20%

Q: And the “Visual Weed Control (%) - 20 DAA ECHOR Obs” value ([2]; 35 gae/ha)?
A: 25%

Q: And the “Visual Weed Control (%) - 21 DAA ECHOR Obs” value ([2]; 35 gae/ha)?
A: 30% and 35%

Q: And the pest or weed control at 35 g/ha ([2]; Echinochloa oryzoides, 504 h, 35 gae/ha, 21 DAA, read-out: Visual Weed Control ECHOR Obs)?
A: 30%

Q: How did the “Visual Weed Control (%) - 22 DAA CYPIR Obs” value ([1]; 150 gai/ha, foliar) turn out when `CCS(=O)(=O)Oc1ccc2c(c1)C(C)(C)CO2` [Benfuresate, 2,3-dihydro-3,3-dimethyl-5-benzofuranyl ethanesulfonate] was run?
A: 0%

Q: What about the “Visual Weed Control (%) - 22 DAA CYPIR Obs” value ([1]; 300 gai/ha, foliar) of the same molecule?
A: 10%

Q: And the pest or weed control at 150 g/ha ([2]; Echinochloa oryzoides, 528 h, 150 gai/ha (Full Slot), 22 DAA, read-out: Visual Weed Control ECHOR Obs)?
A: 0%

Q: What does the source list for `CCCOCCN(C(=O)CCl)c1c(CC)cccc1CC` [Pretilachlor, 2-chloro-N-(2,6-diethylphenyl)-N-(2-propoxyethyl)acetamide]?
A: Visual Weed Control Obs ([1]; 20 DAA, 37.5 gai/ha): 0%; Visual Weed Control Obs ([1]; 20 DAA, 75 gai/ha): 0%; Visual Weed Control Obs ([1]; 20 DAA, 150 gai/ha): 0%; Visual Weed Control (%) - 20 DAA ECHOR Obs ([2]; 75 gai/ha): 0%; Visual Weed Control (%) - 20 DAA ECHOR Obs ([2]; 150 gai/ha): 30%

Q: Which results are given for `CCN(CC)C(=O)n1cnc(S(=O)(=O)c2c(C)cc(C)cc2C)n1` [Cafenstrole, N,N-diethyl-3-[(2,4,6-trimethylphenyl)sulfonyl]-1H-1,2,4-triazole-1-carboxamide]?
A: Visual Weed Control Obs ([1]; 21 DAA, 26.25 gai/ha Lapost Flowable): 0%; Visual Weed Control Obs ([1]; 21 DAA, 52.5 gai/ha Lapost Flowable): 0%; Visual Weed Control Obs ([1]; 21 DAA, 105 gai/ha Lapost Flowable): 0%; pest or weed control at 52.5 g/ha ([2]; Echinochloa oryzoides, 504 h, 52.5 gai/ha (Himeadow WP), 21 DAA, read-out: Visual Weed Control ECHOR Obs): 10%; pest or weed control at 52.5 g/ha ([2]; Echinochloa oryzoides, 504 h, 52.5 gai/ha (Lapost Flowable), 21 DAA, read-out: Visual Weed Control ECHOR Obs): 70%; pest or weed control at 105 g/ha ([2]; Echinochloa oryzoides, 504 h, 105 gai/ha (Himeadow WP), 21 DAA, read-out: Visual Weed Control ECHOR Obs): 30%
